Assay results: BindingDB's records for doi:10.1021/jm00105a069 (Schering-Plough, 1991)
Blank lines part the entries; values can stand above or below the compound they belong to.

Assay: Concentration required to cause 50% inhibition of platelet activating factor (PAF)-induced platelet aggregation of human platelet rich plasma when challenged with 25 nM PAF.

Compound: CC(=O)N(C)CC/C=C1/c2ccc(Cl)cc2CCc2cccnc21
- IC50: > 50 µM

Compound: CC(=O)N1CCC(=C2c3cc(Cl)c(Cl)cc3CCc3cccnc32)CC1
- IC50: 1.8 µM

Compound: CC(=O)N1CCC(=C2c3ccccc3CCc3ccccc32)CC1
- IC50: 41 µM

Compound: CC(=O)N1CCC(=C2c3ccccc3CCc3cccnc32)CC1
- IC50: 1.4 µM

Compound: CN(C)CCC(c1ccc(Cl)cc1)c1ccccn1 (centres undefined) [clorfeniramina]
- IC50: > 50 µM

Compound: COc1cc([C@@H]2CC[C@@H](c3cc(OC)c(OC)c(OC)c3)O2)cc(OC)c1OC
- IC50: 1.5 µM

Compound: CC(=O)N1CCC(=C2c3cc(F)c(F)cc3CCc3cccnc32)CC1
- IC50: 1 µM

Compound: CN1CCC(=C2c3ccccc3CCc3cccnc32)CC1
- IC50: > 50 µM

Compound: CC(=O)N1CCC(=C(c2ccc(Cl)cc2)c2ccccn2)CC1
- IC50: 28 µM

Compound: CC(=O)N(C)CC/C=C1\c2ccc(Cl)cc2CCc2cccnc21
- IC50: > 50 µM

Second part, the compound after the results:

- IC50: 3.4 µM
Compound: CC(=O)N1CCC(=C2c3cc(Cl)ccc3CCc3cccnc32)CC1

- IC50: 8.7 µM
Compound: CC(=O)N1CCC(=C2c3ccc(O)cc3CCc3cccnc32)CC1

- IC50: 1 µM
Compound: CC(=O)N1CCC(=C2c3ccc(C)cc3CCc3cccnc32)CC1

- IC50: 0.61 µM
Compound: CC(=O)N1CCC(=C2c3ccc(Cl)cc3CCc3cccnc32)CC1

- IC50: > 50 µM
Compound: CC(=O)C1CCC(=C2c3ccc(Cl)cc3CCc3cccnc32)CC1 (centres undefined)

- IC50: 0.81 µM
Compound: CC(=O)N1CCC(=C2c3ccc(Br)cc3CCc3cccnc32)CC1

- IC50: 3.4 µM
Compound: COc1ccc2c(c1)CCc1cccnc1C2=C1CCN(C(C)=O)CC1

- IC50: 33 µM
Compound: CCCC(=O)N1CCC(=C2c3ccc(Cl)cc3CCc3cccnc32)CC1

- IC50: 13 µM
Compound: O=CN1CCC(=C2c3ccc(Cl)cc3CCc3cccnc32)CC1

- IC50: 0.82 µM
Compound: CC(=O)N1CCC(=C2c3cc(F)ccc3CCc3cccnc32)CC1

- IC50: > 50 µM
Compound: O=C(c1ccccc1)N1CCC(=C2c3ccc(Cl)cc3CCc3cccnc32)CC1

- IC50: > 50 µM
Compound: CC(C)(C)C(=O)N1CCC(=C2c3ccc(Cl)cc3CCc3cccnc32)CC1

- IC50: 2.4 µM
Compound: CCC(=O)N1CCC(=C2c3ccc(Cl)cc3CCc3cccnc32)CC1

- IC50: 0.67 µM
Compound: CC(=O)N1CCC(=C2c3ccc(F)cc3CCc3cccnc32)CC1
